{"source": "ChEMBL document CHEMBL1148375", "about": "“Discovery of a bulky 2-tert-butyl group containing primaquine analogue that exhibits potent blood-schizontocidal antimalarial activities and complete elimination of methemoglobin toxicity” (J Med Chem, 2004)", "format_in_all_cases": "functional, organism-based", "key": {"Mus musculus [1]": {"tested_on": "Mus musculus", "test": "(§1) Compound was evaluated for the blood-schizonticidal antimalarial activity against Plasmodium berghei (sensitive strain) in mice (Mus musculus) at 100 mg/kg/day x 4 (oral); indicates that the treated animals show positive parasitaemia either on D+4 or D+7 and usually dieby D+14 (survival=0/6)"}, "Mus musculus [2]": {"tested_on": "Mus musculus", "test": "as §1, with “yoelii nigeriensis (multidrug-resistant” for “berghei (sensitive”, “orD+7” for “or D+7”, “die by” for “dieby”"}, "Plasmodium falciparum [3]": {"tested_on": "Plasmodium falciparum", "test": "Inhibitory concentration against chloroquine-sensitive Plasmodium falciparum"}, "Mus musculus [4]": {"tested_on": "Mus musculus", "test": "Compound was evaluated for the blood-schizonticidal antimalarial activity against Plasmodium berghei (sensitive strain) in mice (Mus musculus) at 10 mg/kg/day x 4 (oral); indicates that all of the treated animals show negative parasitaemia up to D+7 (survival=4/6)"}, "Mus musculus [5]": {"tested_on": "Mus musculus", "test": "Compound was evaluated for the blood-schizonticidal antimalarial activity against Plasmodium berghei (sensitive strain) in mice (Mus musculus) at 25 mg/kg/day x 4 (oral); indicates complete elimination of malaria parasites from the body, and animals survive up to day D+60 (survival=6/6)"}, "Mus musculus [6]": {"tested_on": "Mus musculus", "test": "Compound was evaluated for the blood-schizonticidal antimalarial activity against Plasmodium berghei (sensitive strain) in mice (Mus musculus) at 50 mg/kg/day x 4 (oral); indicates complete elimination of malaria parasites from the body, and animals survive up to day D+60 (survival=6/6)"}, "Mus musculus [7]": {"tested_on": "Mus musculus", "test": "Compound was evaluated for the blood-schizonticidal antimalarial activity against Plasmodium yoelii nigeriensis (multidrug-resistant strain) in mice (Mus musculus) at 100 mg/kg/day x 4 (oral); indicates complete elimination of malaria parasites from the body, and animalssurvive up to day D"}, "Mus musculus [8]": {"tested_on": "Mus musculus", "test": "Compound was evaluated for the blood-schizonticidal antimalarial activity against Plasmodium yoelii nigeriensis (multidrug-resistant strain) in mice (Mus musculus) at 50 mg/kg/day x 4 (oral); indicates that all of the treated animals show negative parasitaemia up to D+7(survival=4/6)"}, "Plasmodium falciparum [9]": {"tested_on": "Plasmodium falciparum", "test": "Inhibitory activity I50 against chloroquine-sensitive Plasmodium falciparum"}, "Mus musculus [10]": {"tested_on": "Mus musculus", "test": "Compound was evaluated for the blood-schizonticidal antimalarial activity against Plasmodium berghei (sensitive strain) in mice (Mus musculus) at 100 mg/kg/day x 4 (oral); indicates complete elimination of malaria parasites from the body, and animals survive up to day D+60 (survival=6/6)"}}, "note": "Active and inactive are the calls of the source. No cut-off for these calls is given here.", "data": [{"smiles": "COc1cc(NC(C)CCCN)c2nc(C34C[C@H]5C[C@@H](C3)C[C@@H](C4)C5)ccc2c1", "note": "(some centres not stated)", "values": [{"measurement": "Antimalarial activity", "setting": "Mus musculus [1]", "result": "inactive"}, {"measurement": "Antimalarial activity", "setting": "Mus musculus [2]", "result": "inactive"}, {"measurement": "IC50", "setting": "Plasmodium falciparum [3]", "result": "> 0.5", "unit": "µg/mL"}]}, {"smiles": "COc1cc(NC(C)CCCN)c2ncccc2c1", "note": "(configuration not stated)", "values": [{"measurement": "Antimalarial activity", "setting": "Mus musculus [1]", "result": "inactive"}, {"measurement": "Antimalarial activity", "setting": "Mus musculus [2]", "result": "inactive"}]}, {"smiles": "COc1cc(NC(C)CCCN)c2nc(C(C)(C)C)ccc2c1", "note": "(configuration not stated)", "values": [{"measurement": "Antimalarial activity", "setting": "Mus musculus [4]", "result": "Active"}, {"measurement": "Antimalarial activity", "setting": "Mus musculus [5]", "result": "Curative"}, {"measurement": "Antimalarial activity", "setting": "Mus musculus [6]", "result": "Curative"}, {"measurement": "Antimalarial activity", "setting": "Mus musculus [7]", "result": "Curative"}, {"measurement": "Antimalarial activity", "setting": "Mus musculus [8]", "result": "Active"}, {"measurement": "IC50", "setting": "Plasmodium falciparum [9]", "result": 0.0391, "unit": "µg/mL"}, {"measurement": "Antimalarial activity", "setting": "Mus musculus [10]", "result": "Curative"}]}]}
